Assay results reported in ChEMBL document CHEMBL3608308, “Design, synthesis and antiproliferative activity of novel heterobivalent hybrids based on imidazo[2,1-b][1,3,4]thiadiazole and imidazo[2,1-b][1,3]thiazole scaffolds” (Eur J Med Chem, 2015).

What was measured:
Format in all cases: functional
[1] = system: CCRF-CEM; experiment: Antiproliferative activity against human CEM cells assessed as inhibition of cell proliferation incubated for 3 days by Coulter counter based assay; settings: 72 h
[2] = system: HeLa; experiment: Antiproliferative activity against human HeLa cells assessed as inhibition of cell proliferation incubated for 4 days by Coulter counter based assay; settings: 96 h
[3] = system: FM3A; experiment: Antiproliferative activity against mouse FM3A cells assessed as inhibition of cell proliferation incubated for 2 days by Coulter counter based assay; settings: 48 h
[4] = system: L1210; experiment: Antiproliferative activity against mouse L1210 cells assessed as inhibition of cell proliferation incubated for 2 days by Coulter counter based assay; settings: L1210, 48 h

Row | Structure (SMILES) | IC50 [1] | IC50 [2] | IC50 [3] | IC50 [4]
1 | COc1ccc(-c2nn3cc(-c4cccc(N)c4)nc3s2)cc1OC | 14000 nM | 26000 nM | 13000 nM | 16000 nM
2 | C=C(Br)C(=O)Nc1cccc(-c2cn3c(-c4ccccc4)csc3n2)c1 | 2800 nM | 3400 nM | 1300 nM | 1300 nM
3 | Nc1cccc(-c2cn3c(-c4ccccc4)csc3n2)c1 | 29000 nM | 60000 nM | 34000 nM | 85000 nM
4 | C=C(Br)C(=O)Nc1cccc(-c2cn3nc(Cc4ccc(OC)cc4)sc3n2)c1 | 2300 nM | 2300 nM | 850 nM | 1400 nM
5 | COc1ccc(-c2nn3cc(-c4cccc(N)c4)nc3s2)cc1 | ≥ 250000 nM | ≥ 250000 nM | 74000 nM | ≥ 250000 nM
6 | C=C(Br)C(=O)Nc1cccc(-c2cn3nc(-c4ccc(OC)cc4)sc3n2)c1 | 1200 nM | 2300 nM | 890 nM | 940 nM
7 | C=C(Br)C(=O)Nc1cccc(-c2cn3c(-c4ccc(Cl)cc4)csc3n2)c1 | 2200 nM | 3000 nM | 1100 nM | 1900 nM
8 | Nc1cccc(-c2cn3nc(Cc4ccc(Cl)cc4)sc3n2)c1 | 42000 nM | 25000 nM | 6000 nM | 16000 nM
9 | C=C(Br)C(=O)Nc1cccc(-c2cn3nc(Cc4ccc(Cl)cc4)sc3n2)c1 | 3300 nM | 2700 nM | 1100 nM | 2300 nM
10 | Nc1cccc(-c2cn3nc(-c4ccc(F)cc4)sc3n2)c1 | ≥ 250000 nM | ≥ 250000 nM | 33000 nM | ≥ 250000 nM
11 | C=C(Br)C(=O)Nc1cccc(-c2cn3nc(-c4ccc(C)cc4)sc3n2)c1 | 1700 nM | 2000 nM | 1200 nM | 920 nM
12 | Nc1cccc(-c2cn3nc(-c4ccc(Cl)cc4)sc3n2)c1 | > 250000 nM | 160000 nM | 160000 nM | ≥ 250000 nM
13 | COc1cccc(-c2nn3cc(-c4cccc(N)c4)nc3s2)c1 | > 250000 nM | 230000 nM | 29000 nM | > 250000 nM
14 | C=C(Br)C(=O)Nc1cccc(-c2cn3nc(-c4ccc(OCC)cc4)sc3n2)c1 | 1400 nM | 1100 nM | 1100 nM | 790 nM
15 | C=C(Br)C(=O)Nc1cccc(-c2cn3nc(-c4ccccc4)sc3n2)c1 | 960 nM | 1400 nM | 900 nM | 600 nM
16 | COc1ccc(-c2csc3nc(-c4cccc(N)c4)cn23)cc1 | 6100 nM | 19000 nM | 11000 nM | 19000 nM
17 | C=C(Br)C(=O)Nc1cccc(-c2cn3nc(CCc4ccccc4)sc3n2)c1 | 4200 nM | 3300 nM | 2600 nM | 2200 nM
